This is an account of results in US20120122860A1, “SOLID FORMS OF SULFONAMIDES AND AMINO ACIDS” (Plexxikon, Inc., priority 2009, published 2012).

A short description of data set [1]: Dog PK study of solid forms and formulations. The class given is in vivo, Beagle dogs. On the procedure:
Pharmacokinetic properties of various compositions prepared from the complexes may be assessed in male Sprague Dawley rats or male Beagle dogs, and compared to the properties of the free base compound. Rats are dosed daily with compound either by IV injections via surgically implanted jugular catheters or by oral gavage (PO). Each compound is prepared as a 20 mg/mL stock solution in dimethyl sulfoxide, which is further diluted to provide the dosing stock at the desired concentration for the IV or PO formulations. For IV dosing, the dosing stock is diluted into a 1:1:8 mixture of Solutol®:ethanol:water. For PO dosing, the dosing stock is diluted into 1% methylcellulose. In a cassette format, 5 compounds are diluted to 0.5 mg/mL each for IV dosing and 0.4 mg/mL each for PO dosing and dosed at 1 mg/kg (2 mL/kg) or 2 mg/kg (5 mL/kg), respectively. For IV dosed animals, tail vein blood samples are collected with lithium heparin anticoagulant at 5, 15, 30, and 60 minutes and 4, 8, and 24 hours post dosing each day. For PO dosed animals, tail vein blood samples are collected with lithium heparin anticoagulant at 30 minutes, 1, 2, 4, 8 and 24 hours post dosing each day. Dogs are dosed daily by oral capsules in a suitable formulation at 50 mg/mL. Cephalic vein blood samples are collected with lithium heparin anticoagulant at 30 minutes, 1, 2, 4, 8 and 24 hours post dosing each day. All samples are processed to plasma and frozen for later analysis of each compound by LC/MS/MS. Plasma levels as a function of time are plotted to assess the AUC (ng*hr/mL).
The arginine complex of N-[3-(5-chloro-1H-pyrrolo[2,3-b]pyridine-3-carbonyl)-2,4-difluoro-phenyl]-4-trifluoromethyl-benzenesulfonamide P-1021 was analyzed in a number of dog PK studies following the above or similar protocols. These were done primarily at Bridge Laboratories, Beijing, China, with one study done at Seventh Wave Laboratories LLC, Chesterfield, Mo. Plasma samples were analyzed to determine the plasma concentration (PPD Development, Madison, Wis.) at each time point from which the Cmax and AUC∞ were determined. In some instances, the materials are combined in the solvents indicated, and the solvent is removed by evaporation, or by spray drying where indicated. In these tables, unless indicated otherwise, the dose is mg/dog, and the Cmax/dose ((ng/mL)/(mg/kg)) and the AUC∞/dose ((ng*hr/mL)/(mg/kg)) are calculated assuming a 10 kg weight for the dogs.
This study was done at Seventh Wave, containers were provided with 13.259 g, 39.776 g or 66.301 g of this formulation and suspended in 360 mL of 1.5% Polysorbate 20 vehicle and dosed by oral gavage.
N-[3-(5-chloro-1H-pyrrolo[2,3-b]pyridine-3-carbonyl)-2,4-difluoro-phenyl]-4-trifluoromethyl-benzenesulfonamide P-1021 was analyzed in a dog PK study wherein the arginine complex of N-[3-(5-cyano-1H-pyrrolo[2,3-b]pyridine-3-carbonyl)-2,4-difluoro-phenyl]-4-trifluoromethyl-benzenesulfonamide P-1092 was also assessed.

The target in another data set is B-Raf (Homo sapiens, UniProt P15056). Nature of the data set: Kinase activity assay, B-Raf. The class given is biochemical. The settings on record: read-out: activity toward kinase B-Raf, IC50.
Chain of B-Raf (P15056 whole entry): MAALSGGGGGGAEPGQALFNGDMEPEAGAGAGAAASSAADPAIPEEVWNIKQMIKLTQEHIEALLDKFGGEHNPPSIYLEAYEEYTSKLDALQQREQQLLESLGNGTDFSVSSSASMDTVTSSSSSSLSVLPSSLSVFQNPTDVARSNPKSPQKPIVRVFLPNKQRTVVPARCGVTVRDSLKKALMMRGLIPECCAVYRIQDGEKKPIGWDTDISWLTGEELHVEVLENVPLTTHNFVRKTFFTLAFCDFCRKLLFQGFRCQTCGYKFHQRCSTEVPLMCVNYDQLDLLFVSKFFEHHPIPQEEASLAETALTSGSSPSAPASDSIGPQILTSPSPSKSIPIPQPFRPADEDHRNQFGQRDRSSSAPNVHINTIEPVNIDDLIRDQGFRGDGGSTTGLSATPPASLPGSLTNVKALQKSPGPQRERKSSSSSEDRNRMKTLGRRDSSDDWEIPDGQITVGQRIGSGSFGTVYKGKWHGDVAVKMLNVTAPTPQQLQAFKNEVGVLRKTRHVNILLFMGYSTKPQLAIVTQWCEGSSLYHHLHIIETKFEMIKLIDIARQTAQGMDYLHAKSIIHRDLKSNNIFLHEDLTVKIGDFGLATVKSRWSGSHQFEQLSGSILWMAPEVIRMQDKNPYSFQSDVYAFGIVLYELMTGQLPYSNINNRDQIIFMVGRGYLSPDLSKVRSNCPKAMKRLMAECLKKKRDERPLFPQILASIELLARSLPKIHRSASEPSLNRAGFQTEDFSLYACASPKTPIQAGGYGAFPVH
For another data set, the target named is B-Raf V600E (Homo sapiens, UniProt P15056, V600E). Nature of the data set: Kinase activity assay, B-Raf V600E. The format is biochemical. The note with it: read-out: activity toward kinase B-Raf V600E, IC50.
Chain of B-Raf V600E (P15056 whole entry V600E): as the sequence (P15056 whole entry) above, with V600E counted along it
Another data set concerns the target Kdr (Homo sapiens, UniProt P35968). Nature of the data set: Kinase activity assay, Kdr.
For another data set, the target named is Src (Homo sapiens, UniProt P12931). Nature of the data set: Kinase activity assay, Src.
Chain of Src (P12931 whole entry): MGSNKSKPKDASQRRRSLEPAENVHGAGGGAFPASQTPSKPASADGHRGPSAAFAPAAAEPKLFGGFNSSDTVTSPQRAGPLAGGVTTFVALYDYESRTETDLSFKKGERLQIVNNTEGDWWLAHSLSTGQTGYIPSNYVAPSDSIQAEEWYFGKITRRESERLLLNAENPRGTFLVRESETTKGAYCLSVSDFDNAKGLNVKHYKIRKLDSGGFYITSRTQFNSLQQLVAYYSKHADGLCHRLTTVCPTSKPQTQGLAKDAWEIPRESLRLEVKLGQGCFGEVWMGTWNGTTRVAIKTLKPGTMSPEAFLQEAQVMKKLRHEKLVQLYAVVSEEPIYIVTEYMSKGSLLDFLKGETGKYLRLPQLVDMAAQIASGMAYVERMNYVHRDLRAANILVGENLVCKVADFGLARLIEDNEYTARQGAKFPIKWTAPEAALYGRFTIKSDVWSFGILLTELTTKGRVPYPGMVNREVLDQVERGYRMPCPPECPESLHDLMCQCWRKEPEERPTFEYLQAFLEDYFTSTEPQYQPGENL
The next data set deals with Flt1 (Homo sapiens, UniProt P17948). Nature of the data set: Kinase activity assay, Flt1.
Chain of Flt1 (P17948 27-1338): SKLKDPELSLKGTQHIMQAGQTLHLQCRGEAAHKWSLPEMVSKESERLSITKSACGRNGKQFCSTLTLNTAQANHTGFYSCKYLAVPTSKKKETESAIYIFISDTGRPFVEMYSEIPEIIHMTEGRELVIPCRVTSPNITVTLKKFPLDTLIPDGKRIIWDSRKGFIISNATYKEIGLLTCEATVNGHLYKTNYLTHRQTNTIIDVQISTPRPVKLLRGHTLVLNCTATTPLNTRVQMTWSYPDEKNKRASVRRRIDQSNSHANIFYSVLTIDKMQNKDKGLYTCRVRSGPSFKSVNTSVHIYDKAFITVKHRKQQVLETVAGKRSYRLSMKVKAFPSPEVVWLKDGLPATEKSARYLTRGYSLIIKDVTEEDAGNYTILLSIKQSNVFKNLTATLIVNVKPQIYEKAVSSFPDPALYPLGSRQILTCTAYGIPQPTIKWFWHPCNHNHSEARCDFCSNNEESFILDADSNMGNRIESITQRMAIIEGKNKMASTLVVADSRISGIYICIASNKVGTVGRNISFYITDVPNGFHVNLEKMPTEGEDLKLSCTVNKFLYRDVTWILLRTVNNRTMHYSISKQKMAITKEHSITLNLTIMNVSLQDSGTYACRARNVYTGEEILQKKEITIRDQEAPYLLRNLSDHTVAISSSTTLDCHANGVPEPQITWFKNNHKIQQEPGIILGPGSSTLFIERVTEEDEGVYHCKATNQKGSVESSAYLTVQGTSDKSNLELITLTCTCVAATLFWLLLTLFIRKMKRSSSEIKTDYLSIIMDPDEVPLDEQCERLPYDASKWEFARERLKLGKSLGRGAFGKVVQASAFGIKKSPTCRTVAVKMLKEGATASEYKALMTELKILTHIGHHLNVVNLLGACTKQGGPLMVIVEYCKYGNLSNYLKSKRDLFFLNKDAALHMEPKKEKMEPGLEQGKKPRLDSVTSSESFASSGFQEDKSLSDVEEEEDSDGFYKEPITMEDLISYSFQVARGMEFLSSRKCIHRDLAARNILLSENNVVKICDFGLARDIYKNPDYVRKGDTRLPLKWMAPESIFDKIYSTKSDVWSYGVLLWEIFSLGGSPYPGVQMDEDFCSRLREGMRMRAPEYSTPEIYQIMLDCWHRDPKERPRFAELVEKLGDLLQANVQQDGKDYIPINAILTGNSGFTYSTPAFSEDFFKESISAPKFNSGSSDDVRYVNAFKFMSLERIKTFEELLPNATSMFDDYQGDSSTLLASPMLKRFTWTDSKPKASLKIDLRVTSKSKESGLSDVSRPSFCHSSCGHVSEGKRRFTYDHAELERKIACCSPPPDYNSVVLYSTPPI
The next data set addresses C-Raf (Homo sapiens, UniProt P04049). Nature of the data set: Kinase activity assay, C-Raf.
The next data set concerns the target Fms (Homo sapiens, UniProt P07333). Nature of the data set: Kinase activity assay, Fms.
Another data set addresses Kit (Homo sapiens, UniProt P10721). Nature of the data set: Kinase activity assay, Kit.
Setting [2] is: Table 5B, forms of P-1021, dog, dose 150 mg/dog, 10 kg weight assumed.
Where [3] appears, read: Table 7B, P-1021 arginine complex, dog, dose 200 mg/dog, 10 kg weight assumed.
The mark [4] stands for this setting: Table 7B, P-1021 arginine complex, dog, dose 400 mg/dog, 10 kg weight assumed.
Where [5] appears, read: Table 8B, P-1021 arginine complex, dog, oral gavage, dose 249 mg/kg.
The mark [6] stands for this setting: Table 8B, P-1021 arginine complex, dog, oral gavage, dose 795 mg/kg.
Where [7] appears, read: Table 8B, P-1021 arginine complex, dog, oral gavage, dose 965 mg/kg.
Where [8] appears, read: test articles are solid forms of P-1021, dog, oral, 100 mg/dog, calculated assuming a 10 kg weight.
[9] abbreviates: Table 9B, dog, dose 200 mg/dog, 10 kg weight assumed.
[10] abbreviates: Table 9B, dog, dose 400 mg/dog, 10 kg weight assumed.

Chain of Fms (P07333 20-972): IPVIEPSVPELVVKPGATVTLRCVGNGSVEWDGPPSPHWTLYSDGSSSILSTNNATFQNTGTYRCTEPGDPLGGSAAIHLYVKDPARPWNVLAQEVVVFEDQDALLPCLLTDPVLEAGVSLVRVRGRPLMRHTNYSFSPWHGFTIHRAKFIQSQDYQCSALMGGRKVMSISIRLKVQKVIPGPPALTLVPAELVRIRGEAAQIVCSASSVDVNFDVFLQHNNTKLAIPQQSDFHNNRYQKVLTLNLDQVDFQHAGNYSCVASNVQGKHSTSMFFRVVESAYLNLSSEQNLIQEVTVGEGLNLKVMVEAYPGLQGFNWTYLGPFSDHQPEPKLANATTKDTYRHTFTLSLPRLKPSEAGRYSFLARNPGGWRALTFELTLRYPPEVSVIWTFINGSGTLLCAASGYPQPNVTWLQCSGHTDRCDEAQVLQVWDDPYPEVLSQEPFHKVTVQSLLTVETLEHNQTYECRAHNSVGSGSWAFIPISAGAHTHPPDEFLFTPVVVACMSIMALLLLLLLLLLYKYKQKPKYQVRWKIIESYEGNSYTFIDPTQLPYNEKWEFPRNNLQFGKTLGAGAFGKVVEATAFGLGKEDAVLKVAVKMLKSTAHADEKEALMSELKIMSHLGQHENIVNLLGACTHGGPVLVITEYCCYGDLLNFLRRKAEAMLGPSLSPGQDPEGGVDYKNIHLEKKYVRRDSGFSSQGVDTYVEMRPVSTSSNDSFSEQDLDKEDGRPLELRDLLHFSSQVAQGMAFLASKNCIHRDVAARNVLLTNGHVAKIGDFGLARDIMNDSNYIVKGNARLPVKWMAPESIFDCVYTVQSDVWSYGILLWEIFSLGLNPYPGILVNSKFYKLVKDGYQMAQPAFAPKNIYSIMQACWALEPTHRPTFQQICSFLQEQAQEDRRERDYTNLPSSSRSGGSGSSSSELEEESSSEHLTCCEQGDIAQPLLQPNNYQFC
Chain of Kit (P10721 26-976): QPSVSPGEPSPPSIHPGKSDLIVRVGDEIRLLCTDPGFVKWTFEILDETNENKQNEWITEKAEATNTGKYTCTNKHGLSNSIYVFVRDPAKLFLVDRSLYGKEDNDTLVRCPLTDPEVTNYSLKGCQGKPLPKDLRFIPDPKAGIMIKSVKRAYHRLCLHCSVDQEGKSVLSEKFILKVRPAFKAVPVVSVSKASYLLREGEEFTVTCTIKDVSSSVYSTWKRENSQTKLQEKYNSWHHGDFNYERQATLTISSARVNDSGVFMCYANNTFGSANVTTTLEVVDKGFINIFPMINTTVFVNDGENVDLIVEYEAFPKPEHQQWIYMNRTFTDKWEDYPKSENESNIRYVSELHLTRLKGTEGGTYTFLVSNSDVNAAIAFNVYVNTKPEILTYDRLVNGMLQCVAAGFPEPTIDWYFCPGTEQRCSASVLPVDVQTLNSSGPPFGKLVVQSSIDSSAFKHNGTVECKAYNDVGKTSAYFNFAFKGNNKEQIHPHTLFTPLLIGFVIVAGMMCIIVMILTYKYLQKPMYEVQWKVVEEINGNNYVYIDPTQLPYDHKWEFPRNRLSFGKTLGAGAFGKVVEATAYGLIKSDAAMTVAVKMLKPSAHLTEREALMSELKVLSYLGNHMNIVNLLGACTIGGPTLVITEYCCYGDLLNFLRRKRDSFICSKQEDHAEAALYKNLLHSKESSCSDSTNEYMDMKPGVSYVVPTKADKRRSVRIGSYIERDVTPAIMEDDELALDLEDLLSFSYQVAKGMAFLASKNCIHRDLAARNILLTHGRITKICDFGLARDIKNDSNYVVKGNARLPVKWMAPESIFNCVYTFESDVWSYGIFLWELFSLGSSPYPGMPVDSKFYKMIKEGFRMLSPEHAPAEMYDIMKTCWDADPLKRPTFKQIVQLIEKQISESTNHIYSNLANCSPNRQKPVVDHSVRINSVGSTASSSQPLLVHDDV

On to `O=C(c1c(F)ccc(NS(=O)(=O)c2ccc(C(F)(F)F)cc2)c1F)c1c[nH]c2ncc(Cl)cc12` [Mesylate, N-[3-(5-chloro-1H-pyrrolo[2,3-b]pyridine-3-carbonyl)-2,4-difluoro-phenyl]-4-trifluoromethyl-benzenesulfonamide], for which, in data set [1] (setting [2]), the “AUC∞/dose” value is recorded as 2,849 (ng*hr/mL)/(mg/kg) and the Cmax/dose is reported as 116 (ng/mL)/(mg/kg).

Take `O=C(c1c(F)ccc(NS(=O)(=O)c2ccc(C(F)(F)F)cc2)c1F)c1c[nH]c2ncc(Cl)cc12` [P-1021 arginine complex, N-[3-(5-chloro-1H-pyrrolo[2,3-b]pyridine-3-carbonyl)-2,4-difluoro-phenyl]-4-trifluoromethyl-benzenesulfonamide]: the AUC/dose entry in [1] (P-1021 arginine complex dosed at 400 mg per dog (Table 6B, Table 7B), typical value) was “greater than 12,000 (ng*hr/mL)/(mg/kg)”. Also, the “AUC∞/dose” value in data set [1] (setting [2]) is 34,693 (ng*hr/mL)/(mg/kg); in [1] (setting [3]), 22,480 (ng*hr/mL)/(mg/kg); in data set [1] (setting [4]) it was 12,120 (ng*hr/mL)/(mg/kg); in [1] (setting [5]) it was 11,247 (ng*hr/mL)/(mg/kg); in data set [1] (setting [6]) it was 7,457 (ng*hr/mL)/(mg/kg); in data set [1] (setting [7]), 3,883 (ng*hr/mL)/(mg/kg). The “AUC∞/dose” value in [1] (setting [8]) is 16,850 (ng*hr/mL)/(mg/kg). The Cmax/dose is reported as 810 (ng/mL)/(mg/kg) in data set [1] (setting [2]); 960 (ng/mL)/(mg/kg) in data set [1] (setting [3]); 455 (ng/mL)/(mg/kg) in data set [1] (setting [4]); 208 (ng/mL)/(mg/kg) in data set [1] (setting [5]); 107 (ng/mL)/(mg/kg) in [1] (setting [6]); 178 (ng/mL)/(mg/kg) in [1] (setting [7]). In data set [1] (setting [8]), the Cmax/dose was 830.5 (ng/mL)/(mg/kg).

On to `O=C(c1c(F)ccc(NS(=O)(=O)c2ccc(C(F)(F)F)cc2)c1F)c1c[nH]c2ncc(Cl)cc12` [P-1021, N-[3-(5-chloro-1H-pyrrolo[2,3-b]pyridine-3-carbonyl)-2,4-difluoro-phenyl]-4-trifluoromethyl-benzenesulfonamide], for which, in data set [1] (dog PK studies, arginine complex), the “Cmax and AUC / exposure, comparison in words” value was “favorable Cmax and AUC compared to free base and other formulations”.

For `N#Cc1cnc2[nH]cc(C(=O)c3c(F)ccc(NS(=O)(=O)c4ccc(C(F)(F)F)cc4)c3F)c2c1` [P-1092 arginine complex, N-[3-(5-cyano-1H-pyrrolo[2,3-b]pyridine-3-carbonyl)-2,4-difluoro-phenyl]-4-trifluoromethyl-benzenesulfonamide], in [1] (setting [9]), the “AUC∞/dose” value is 11,720 (ng*hr/mL)/(mg/kg) and the Cmax/dose was 550 (ng/mL)/(mg/kg). In data set [1] (setting [10]), the “AUC∞/dose” value is 12,580 (ng*hr/mL)/(mg/kg) and the Cmax/dose is reported as 617.5 (ng/mL)/(mg/kg).

One may read the IC50 as the point on the concentration scale where inhibition reaches its midpoint. Take `CCCS(=O)(=O)Nc1ccc(F)c(C(O)c2c[nH]c3ncc(-c4ccc(C(=O)NCC)nc4)cc23)c1F` (centres unmarked) [P-2150, 5-(3-{[2,6-Difluoro-3-(propane-1-sulfonylamino)-phenyl]-hydroxy-methyl}-1H-pyrrolo[2,3-b]pyridin-5-yl)-pyridine-2-carboxylic acid ethylamide]: the 50% inhibitory concentration (IC50) at B-Raf, at B-Raf V600E, against Kdr, on Src, on Flt1 and at C-Raf was ≤ 10 µM throughout.

Take `CCCS(=O)(=O)Nc1ccc(F)c(C(=O)c2c[nH]c3ncc(-c4cncnc4)cc23)c1F` [P-2162, Propane-1-sulfonic acid [2,4-difluoro-3-(5-pyrimidin-5-yl-1H-pyrrolo[2,3-b]pyridine-3-carbonyl)-phenyl]-amide]: the concentration for half-maximal inhibition (IC50) on B-Raf, on B-Raf V600E, against Kdr, against Src, on Flt1 and on C-Raf was ≤ 10 µM in each case.

As for `CCCS(=O)(=O)Nc1ccc(F)c(C(=O)c2c[nH]c3ncc(C(=O)NC)cc23)c1F` [P-2200, 3-[2,6-Difluoro-3-(propane-1-sulfonylamino)-benzoyl]-1H-pyrrolo[2,3-b]pyridine-5-carboxylic acid methylamide], the half-maximal inhibitory concentration (IC50) on B-Raf, on B-Raf V600E, at Fms, on Kdr, at Kit and against Flt1 was ≤ 10 µM in each case. Further, the IC50 against C-Raf is ≤ 10 µM.

For the compound `CCCS(=O)(=O)Nc1ccc(F)c(C(=O)c2c[nH]c3ncc(C(=O)NC4CC4)cc23)c1F` [P-2201, 3-[2,6-Difluoro-3-(propane-1-sulfonylamino)-benzoyl]-1H-pyrrolo[2,3-b]pyridine-5-carboxylic acid cyclopropylamide], the concentration for half-maximal inhibition (IC50) at B-Raf, on B-Raf V600E, at Fms, at Kdr, against Kit and against Flt1 was ≤ 10 µM each time. Besides, the IC50 on C-Raf is ≤ 10 µM.

On to `CCCS(=O)(=O)Nc1ccc(F)c(C(=O)c2c[nH]c3ncc(-c4cnc(OCCCN(C)C)nc4)cc23)c1F` [P-2203, Propane-1-sulfonic acid (3-{5-[2-(3-dimethylamino-propoxy)-pyrimidin-5-yl]-1H-pyrrolo[2,3-b]pyridine-3-carbonyl}-2,4-difluoro-phenyl)-amide], for which the IC50 on B-Raf, at B-Raf V600E, at Fms, against Kdr, on Kit and against Flt1 was ≤ 10 µM throughout.

As for `CCCS(=O)(=O)Nc1ccc(F)c(C(=O)c2c[nH]c3ncc(C(=O)NCCO)cc23)c1F` [P-2217, 3-[2,6-Difluoro-3-(propane-1-sulfonylamino)-benzoyl]-1H-pyrrolo[2,3-b]pyridine-5-carboxylic acid (2-hydroxy-ethyl)-amide], the IC50 at B-Raf, at B-Raf V600E, against Kdr, on Src, at Flt1 and at C-Raf was ≤ 10 µM in each case.

For the compound `CCCS(=O)(=O)Nc1cccc(C(=O)c2c[nH]c3ncc(C(=O)OC)cc23)c1F` [P-2404, 3-[2-Fluoro-3-(propane-1-sulfonylamino)-benzoyl]-1H-pyrrolo[2,3-b]pyridine-5-carboxylic acid methyl ester], the IC50 at B-Raf, at B-Raf V600E, against Fms, against Kdr, at Flt1 and against C-Raf was ≤ 10 µM in each case.

Consider `O=C(c1c(F)ccc(NS(=O)(=O)c2ccc(C(F)(F)F)cc2)c1F)c1c[nH]c2ncc(Cl)cc12` [Sulfate, N-[3-(5-chloro-1H-pyrrolo[2,3-b]pyridine-3-carbonyl)-2,4-difluoro-phenyl]-4-trifluoromethyl-benzenesulfonamide], for which, in data set [1] (setting [8]), the “AUC∞/dose” value is reported as 5,067 (ng*hr/mL)/(mg/kg) and the Cmax/dose is on record as 181.5 (ng/mL)/(mg/kg).
